One assay concerns Entercoccus faecium 180. As to the kind of experiment: MIC, standard broth micro-dilution assay. The format is cell-based. As for the experimental part: (§1) The MIC's were determined using a standard broth micro-dilution assay.
Background: In broth dilution the organism is exposed to a series of concentrations in liquid medium.

The test system of assay [1] is Haemophilus influenzae RD. As to the kind of experiment: MIC, standard broth micro-dilution assay. The class given is cell-based. On the procedure:
as §1

In assay [2] the test system is Staphylococcus aureus 446. As to the kind of experiment: MIC, standard broth micro-dilution assay. The format is cell-based. As for the experimental part:
as §1

Assay [3] deals with Staphylococcus aureus 447. Nature of the assay: MIC, standard broth micro-dilution assay. The class given is cell-based. On the procedure: as §1
Assay [4] deals with Staphylococcus aureus 491. Nature of the assay: MIC, standard broth micro-dilution assay. The class given is cell-based. On the procedure:
as §1

Assay [5] concerns Staphylococcus epidermidis 270. As to the kind of experiment: MIC, standard broth micro-dilution assay. The class given is cell-based. As for the experimental part:
as §1

The test system of assay [6] is Staphylococcus haemolyticus 105. Nature of the assay: MIC, standard broth micro-dilution assay. The format is cell-based. As for the experimental part: as §1
In assay [7] the test system is Staphylococcus haemolyticus 415. Nature of the assay: MIC, standard broth micro-dilution assay. The class given is cell-based. On the procedure:
as §1

The test system of assay [8] is Entercoccus faecalis 2041. Nature of the assay: MIC, standard broth micro-dilution assay. The format is cell-based. On the procedure:
(§2) The formula I compounds have in vitro and in vivo activity against Gram-positive pathogenic bacteria. The MIC's were determined using a standard broth micro-dilution assay.

A further assay relates to Entercoccus faecalis 276. Nature of the assay: MIC, standard broth micro-dilution assay. The format is cell-based. As for the experimental part: as §2
The subject of assay [9] is Entercoccus gallinarum 245. As to the kind of experiment: MIC, standard broth micro-dilution assay. The format is cell-based. On the procedure: as §2
For another assay, the system named is Stapylococcus aureus. Nature of the assay: ED50 in experimentally infected mice. The class given is in vivo. As to conditions: mice infected with Stapylococcus aureus, two doses.
In a further assay the test system is Streptococcus pyogenes. As to the kind of experiment: ED50 in experimentally infected mice. The class given is in vivo. Particulars: mice infected with Streptococcus pyogenes, two doses.
The next assay relates to Streptococcus pneumoniae. Nature of the assay: ED50 in experimentally infected mice. The class given is in vivo. As to conditions: mice infected with Streptococcus pneumoniae, two doses.
Assay [10] deals with vancomycin-resistant enterococci (Enterococcus faecium and Enterococcus faecalis). As to the kind of experiment: mean geometric MIC, broth micro-dilution. The format is cell-based. As to conditions: 24-hour incubation.
The subject of assay [11] is vancomycin-susceptibie enterococci (Enterococcus faecium and Enterococcus faecalis). Nature of the assay: mean geometric MIC, broth micro-dilution. The format is cell-based. Particulars: 24-hour incubation.
Assay [12] deals with Entercoccus faecium 180-1. As to the kind of experiment: MIC, standard broth micro-dilution assay. The class given is cell-based. On the procedure:
as §1

The next assay deals with Escherichia coli EC14. As to the kind of experiment: MIC, standard broth micro-dilution assay. The format is cell-based. On the procedure:
as §1

For assay [13], the system named is Staphylococcus aureus 489. As to the kind of experiment: MIC, standard broth micro-dilution assay. The class given is cell-based. As for the experimental part:
as §1

In assay [14] the test system is Staphylococcus aureus SA1199A. Nature of the assay: MIC, standard broth micro-dilution assay. The format is cell-based. On the procedure:
as §1

Assay [15] has as its system Staphylococcus aureus SA1199. As to the kind of experiment: MIC, standard broth micro-dilution assay. The format is cell-based. As for the experimental part:
as §1

In assay [16] the test system is Staphylococcus aureus X400. Nature of the assay: MIC, standard broth micro-dilution assay. The format is cell-based. As for the experimental part: as §1
Assay [17] concerns Staphylococcus aureus X778. As to the kind of experiment: MIC, standard broth micro-dilution assay. The format is cell-based. As for the experimental part: as §1
For assay [18], the system named is Streptococcus pneumoniae P1. As to the kind of experiment: MIC, standard broth micro-dilution assay. The class given is cell-based. As for the experimental part:
as §1

For assay [19], the system named is Streptococcus pyogenes C203. As to the kind of experiment: MIC, standard broth micro-dilution assay. The class given is cell-based. As for the experimental part:
as §1

Assay [20] concerns Staphylococcus aureus S13E. The format is cell-based. As for the experimental part: as §1
The subject of assay [21] is Staphylococcus aureus SA1199B. The class given is cell-based. As for the experimental part: as §1
Another assay concerns Pedicoccus acidilacti. Nature of the assay: MIC, agar dilution on brain-heart infusion agar. The class given is cell-based. Particulars: Pedioccccus acidilacti (mean of 10). Background: In agar dilution, organisms are placed on agar that contains the substance at set levels.
For another assay, the system named is Pediococcus pentosaceus. Nature of the assay: MIC, agar dilution on brain-heart infusion agar. The format is cell-based. As to conditions: Pediococcus pentosaceus (mean of 2).
The test system of the next assay is Leuconostoc lactis. Nature of the assay: MIC, agar dilution on brain-heart infusion agar. The class given is cell-based. Particulars: Leuconostoc lactis (mean of 2).
Assay [22] concerns Leuconostoc mesenteroides. Nature of the assay: MIC, agar dilution on brain-heart infusion agar. The format is cell-based. As to conditions: Leuconostoc mesenteroides (mean of 4).
The next assay relates to Lactobacillus confusus. Nature of the assay: MIC, agar dilution on brain-heart infusion agar. The format is cell-based.

Structures are written as SMILES. Values after ≈ are worked out from the molar mass of the structure shown.

In the case of `CNC(CC(C)C)C(=O)NC1C(=O)NC(CC(N)=O)C(=O)NC2C(=O)NC3C(=O)NC(C(=O)NC(C(=O)O)c4cc(O)cc(O)c4-c4cc3ccc4O)C(OC3CC(C)(N)C(O)C(C)O3)c3ccc(c(Cl)c3)Oc3cc2cc(c3OC2OC(CO)C(O)C(O)C2OC2CC(C)(NCc3cccc4c([N+](=O)[O-])cccc34)C(O)C(C)O2)Oc2ccc(cc2Cl)C1O` (centres unmarked) [Compound 25, 5-nitro-1-naphthylmethyl], the MIC with Entercoccus faecium 180 came out at 0.5 µg/mL (≈ 0.281 µM); in [1], 32 µg/mL (≈ 18 µM); in assay [2] it was 0.5 µg/mL (≈ 0.281 µM); in [3], 0.25 µg/mL (≈ 0.141 µM); in [4], 0.125 µg/mL (≈ 0.0703 µM); in assay [5], 0.5 µg/mL (≈ 0.281 µM). Moreover, the MIC in assay [6] was 1 µg/mL (≈ 0.563 µM); in assay [7], 32 µg/mL (≈ 18 µM); in assay [8] it was 0.25 µg/mL (≈ 0.141 µM); against Entercoccus faecalis 276, 0.25 µg/mL (≈ 0.141 µM); in [9] it was at most 0.06 µg/mL. In addition, the ED50 with Stapylococcus aureus is 0.16 mg/kg/2; in the assay with Streptococcus pyogenes it was 0.087 mg/kg/2; with Streptococcus pneumoniae, 0.088 mg/kg/2. The “mean geometric MIC, Vancomycin Resistant Strains” value in assay [10] was found to be 4.0 µg/mL. In addition, the “mean geometric MIC, Vancomycin Sensitive Strains” value in assay [11] stood at 0.22 µg/mL.

Take `CNC(CC(C)C)C(=O)NC1C(=O)NC(CC(N)=O)C(=O)NC2C(=O)NC3C(=O)NC(C(=O)NC(C(=O)O)c4cc(O)cc(O)c4-c4cc3ccc4O)C(OC3CC(C)(N)C(O)C(C)O3)c3ccc(c(Cl)c3)Oc3cc2cc(c3OC2OC(CO)C(O)C(O)C2OC2CC(C)(NCc3ccc(SC)cc3)C(O)C(C)O2)Oc2ccc(cc2Cl)C1O` (centres unmarked) [Compound 41, 4-thiomethylbenzyl]: the MIC in assay [12] is at most 0.06 µg/mL; in the assay on Entercoccus faecium 180, 0.25 µg/mL (≈ 0.145 µM); in the assay with Escherichia coli EC14, over 64 µg/mL; in assay [2] it was 2 µg/mL (≈ 1.16 µM); in [3], 0.25 µg/mL (≈ 0.145 µM); in assay [13], at most 0.06 µg/mL. Besides, the MIC in [4] is 0.5 µg/mL (≈ 0.289 µM); in assay [14] it was at most 0.06 µg/mL; in [15], at most 0.06 µg/mL; in assay [16], at most 0.06 µg/mL; in assay [17] it was 0.125 µg/mL (≈ 0.0723 µM); in assay [5], 0.25 µg/mL (≈ 0.145 µM). Besides, the MIC in [6] is 2 µg/mL (≈ 1.16 µM); in [7], 4 µg/mL (≈ 2.31 µM); in [18] it was at most 0.06 µg/mL; in assay [19], at most 0.06 µg/mL; in assay [20], at most 0.06 µg/mL; in assay [21], 0.25 µg/mL (≈ 0.145 µM). Also, the MIC in assay [8] was at most 0.06 µg/mL; against Entercoccus faecalis 276 it was at most 0.06 µg/mL; in assay [9], at most 0.06 µg/mL; against Pedicoccus acidilacti it was 71 µg/mL (≈ 41.1 µM); against Pediococcus pentosaceus, 91 µg/mL (≈ 52.6 µM); in the assay with Leuconostoc lactis, 91 µg/mL (≈ 52.6 µM). The MIC worked out at 91 µg/mL (≈ 52.6 µM) in assay [22] and 64 µg/mL (≈ 37 µM) against Lactobacillus confusus.

Consider `CNC(CC(C)C)C(=O)NC1C(=O)NC(CC(N)=O)C(=O)NC2C(=O)NC3C(=O)NC(C(=O)NC(C(=O)O)c4cc(O)cc(O)c4-c4cc3ccc4O)C(OC3CC(C)(N)C(O)C(C)O3)c3ccc(c(Cl)c3)Oc3cc2cc(c3OC2OC(CO)C(O)C(O)C2OC2CC(C)(NCc3cccc(Oc4cccc(C(F)(F)F)c4)c3)C(O)C(C)O2)Oc2ccc(cc2Cl)C1O` (centres unmarked) [Compound 111], for which the values for the MIC (in assay [8]; with Entercoccus faecalis 276; in assay [9]) were at most 0.06 µg/mL, 0.5 µg/mL (≈ 0.271 µM) and 4 µg/mL (≈ 2.17 µM), respectively. Further, the “mean geometric MIC, Vancomycin Resistant Strains” value in [10] turned out to be 0.84 µg/mL. In addition, the “mean geometric MIC, Vancomycin Sensitive Strains” value in [11] is 0.054 µg/mL.

Values taken from patent US5843889A, “Glycopeptide antibiotic derivatives” (Eli Lilly and Company, priority 1997, dated 1998).
